Assays:
Format in all cases: functional, cell-based
A549 = assay: Antiproliferative activity against human A549 cells after 72 hrs by MTT assay; conditions: A549, 72 h
HL-60 [1] = assay: Antiproliferative activity against human HL60 cells after 72 hrs by MTT assay; conditions: HL-60, 72 h
CAPAN-1 [2] = assay: Cytotoxicity against human Capan1 cells assessed as reduction in cell viability
HL-60 [3] = assay: Cytotoxicity against human HL60 cells assessed as reduction in cell viability
Hep 3B2 [4] = assay: Cytotoxicity against human Hep3B cells assessed as reduction in cell viability
SMMC-7721 [5] = assay: Antiproliferative activity against human SMMC7721 cells by MTT assay
HL-60 [6] = assay: Antiproliferative activity against human HL60 cells by MTT assay
L1210 [7] = assay: Antiproliferative activity against mouse L1210 cells by MTT assay
A-431 = assay: Cytotoxicity against human A431 cells assessed as reduction in cell viability by MTT assay
SW480 = assay: Cytotoxicity against human SW480 cells assessed as reduction in cell viability by MTT assay
MCF7 = assay: Cytotoxicity against human MCF7 cells assessed as reduction in cell viability by MTT assay
SK-MEL3 = assay: Cytotoxicity against human SK-MEL-3 cells assessed as reduction in cell viability by MTT assay
EJ = assay: Cytotoxicity against human EJ cells assessed as reduction in cell viability by MTT assay
HL-60 [8] = assay: Cytotoxicity against human HL60 cells assessed as reduction in cell viability by MTT assay
L1210 [9] = assay: Cytotoxicity against mouse L1210 cells assessed as reduction in cell viability by MTT assay
SMMC-7721 [10] = assay: Cytotoxicity against human SMMC7721 cells assessed as reduction in cell viability by MTT assay
CHO = assay: Cytotoxicity against CHO cells assessed as reduction in cell viability; conditions: Cricetulus griseus
CAPAN-1 [11] = assay: Cytotoxicity against human Capan1 cells assessed as reduction in cell viability by MTT assay
Hep 3B2 [12] = assay: Cytotoxicity against human Hep3B cells assessed as reduction in cell viability by MTT assay
L1210 [13] = assay: Cytotoxicity against mouse L1210 cells assessed as reduction in cell viability

Row | SMILES | IC50 (A549) [µM] | IC50 (HL-60 [1]) [µM] | IC50 (SMMC-7721 [5]) [µM] | IC50 (HL-60 [6]) [µM] | IC50 (L1210 [7]) [µM] | IC50 (HL-60 [3]) [µM] | further results
1 | CN1CCN(c2cc3c(cc2F)c(=O)c(-c2nc4s/c(=C\c5ccc(C#N)cc5)c(=O)n4n2)cn3C2CC2)CC1 | – | – | – | – | – | > 10 | IC50 (CAPAN-1 [2]): > 10 µM; IC50 (Hep 3B2 [4]): > 10 µM
2 | COC(=O)c1ccc(/C=c2\sc3nc(-c4cn(C5CC5)c5cc(N6CCN(C)CC6)c(F)cc5c4=O)nn3c2=O)cc1 | – | – | – | – | – | 0.3 to 8.4 | IC50 (CAPAN-1 [2]): 0.3 to 8.4 µM; IC50 (Hep 3B2 [4]): 0.3 to 8.4 µM
3 | CCn1cc(C(=O)O)c(=O)c2cc(F)c(N3CCNCC3)cc21 [NORFLOXACIN] | > 0.302 | > 0.302 | – | – | – | – | IC50 (A-431): 137 to 238 µM; IC50 (SW480): 137 to 238 µM; IC50 (MCF7): 137 to 238 µM; IC50 (SK-MEL3): 137 to 238 µM; IC50 (EJ): 137 to 238 µM
4 | O=C(O)c1cn(C2CC2)c2c(c1=O)C=C(F)C1=NN=C(c3ccccc3)CN12 | – | – | 1 to 48.6 | 1 to 48.6 | 1 to 48.6 | – | –
5 | O=C(O)c1cn(C2CC2)c2c(c1=O)C=C(F)C1=NN=C(c3cccc([N+](=O)[O-])c3)CN12 | – | – | 1.6 | 1 to 48.6 | 3.2 | – | –
6 | COc1ccccc1C1=NN=C2C(F)=Cc3c(n(C4CC4)cc(C(=O)O)c3=O)N2C1 | – | – | 1 to 48.6 | 1 to 48.6 | 1 to 48.6 | – | –
7 | CN1CCN(c2cc3c(cc2F)c(=O)c(-c2nc4s/c(=C\c5cccc(C(=O)O)c5)c(=O)n4n2)cn3C2CC2)CC1 | – | – | – | – | – | 0.3 to 8.4 | IC50 (CAPAN-1 [2]): 0.3 to 8.4 µM; IC50 (Hep 3B2 [4]): 0.3 to 8.4 µM
8 | Cc1ccc(/C=c2\sc3nc(-c4cn(C5CC5)c5cc(N6CCN(C)CC6)c(F)cc5c4=O)nn3c2=O)cc1 | – | – | – | – | – | > 10 | IC50 (CAPAN-1 [2]): > 10 µM; IC50 (Hep 3B2 [4]): > 10 µM
9 | Cc1ccccc1C1=NN=C2C(F)=Cc3c(n(C4CC4)cc(C(=O)O)c3=O)N2C1 | – | – | 1 to 48.6 | 1 to 48.6 | 1 to 48.6 | – | –
10 | COC(=O)c1cccc(/C=c2\sc3nc(-c4cn(C5CC5)c5cc(N6CCN(C)CC6)c(F)cc5c4=O)nn3c2=O)c1 | – | – | – | – | – | 0.3 to 8.4 | IC50 (CAPAN-1 [2]): 0.3 to 8.4 µM; IC50 (Hep 3B2 [4]): 0.3 to 8.4 µM
11 | O=C(O)c1cn(C2CC2)c2c(c1=O)C=C(F)C1=NN=C(c3ccc(F)cc3)CN12 | – | – | 1 to 48.6 | 1 to 48.6 | 1 to 48.6 | – | –
12 | CCc1c2c(nc3ccc(OC(=O)N4CCC(N5CCCCC5)CC4)cc13)-c1cc3c(c(=O)n1C2)COC(=O)[C@]3(O)CC [IRINOTECAN] | – | 0.032 to 0.044 | – | – | – | – | –
13 | CN1CCN(c2cc3c(cc2F)c(=O)c(-c2nc4s/c(=C\c5ccc(Cl)cc5)c(=O)n4n2)cn3C2CC2)CC1 | – | – | – | – | – | > 10 | IC50 (CAPAN-1 [2]): > 10 µM; IC50 (Hep 3B2 [4]): > 10 µM

Continued, in another order:

Row | IC50 (A549) [µM] | IC50 (HL-60 [1]) [µM] | IC50 (SMMC-7721 [5]) [µM] | IC50 (HL-60 [6]) [µM] | IC50 (L1210 [7]) [µM] | SMILES | IC50 (HL-60 [3]) [µM] | further results
14 | 0.032 to 0.161 | 0.032 to 0.161 | – | – | – | CCn1cc(C(=O)O)c(=O)c2cc(F)c(N3CCN(C(=N)NS(=O)(=O)c4ccc(C)cc4)CC3)cc21 | – | –
15 | – | – | 1 to 48.6 | 1 to 48.6 | 1 to 48.6 | O=C(O)c1cn(C2CC2)c2c(c1=O)C=C(F)C1=NN=C(c3ccc(O)cc3)CN12 | – | –
16 | 0.032 to 0.079 | 0.032 to 0.079 | – | – | – | N=C(NS(=O)(=O)c1ccccc1Cl)N1CCN(c2cc3c(cc2F)c(=O)c(C(=O)O)cn3C2CC2)CC1 | – | –
17 | 0.032 to 0.161 | 0.032 to 0.161 | – | – | – | CCn1cc(C(=O)O)c(=O)c2cc(F)c(N3CCN(C(=N)NS(=O)(=O)c4ccccc4C(F)(F)F)CC3)cc21 | – | –
18 | – | – | 1 to 48.6 | 1 to 48.6 | 1 to 48.6 | O=C(O)c1cn(C2CC2)c2c(c1=O)C=C(F)C1=NN=C(c3ccc(Cl)cc3)CN12 | – | –
19 | > 0.302 | > 0.302 | ≥ 100 | ≥ 100 | ≥ 100 | O=C(O)c1cn(C2CC2)c2cc(N3CCNCC3)c(F)cc2c1=O [CIPROFLOXACIN] | > 150 | IC50 (HL-60 [8]): > 100 µM; IC50 (A-431): 137 to 238 µM; IC50 (L1210 [9]): > 100 µM; IC50 (SMMC-7721 [10]): 137 to 238 µM; IC50 (SW480): 137 to 238 µM; IC50 (CHO): > 150 µM; IC50 (CAPAN-1 [11]): > 100 µM; IC50 (Hep 3B2 [12]): > 100 µM; IC50 (MCF7): > 100 µM; IC50 (SK-MEL3): 137 to 238 µM; IC50 (EJ): 137 to 238 µM; IC50 (L1210 [13]): > 150 µM
20 | 0.032 to 0.161 | 0.032 to 0.161 | – | – | – | N=C(NS(=O)(=O)c1ccccc1)N1CCN(c2cc3c(cc2F)c(=O)c(C(=O)O)cn3C2CC2)CC1 | – | –
21 | 0.032 to 0.161 | 0.032 to 0.161 | – | – | – | CCn1cc(C(=O)O)c(=O)c2cc(F)c(N3CCN(C(=N)NS(=O)(=O)c4ccc(Cl)cc4)CC3)cc21 | – | –
22 | – | – | 1 to 48.6 | 1 to 48.6 | 1 to 48.6 | COc1ccc(C2=NN=C3C(F)=Cc4c(n(C5CC5)cc(C(=O)O)c4=O)N3C2)cc1 | – | –
23 | 0.032 to 0.079 | 0.032 to 0.079 | – | – | – | CCn1cc(C(=O)O)c(=O)c2cc(F)c(N3CCN(C(=N)NS(=O)(=O)c4ccccc4Cl)CC3)cc21 | – | –

— ChEMBL document CHEMBL4613209, “Quinolone hybrids and their anti-cancer activities: An overview” (Eur J Med Chem, 2019)
